Test results taken from ChEMBL document CHEMBL1201862, “PubChem BioAssay data set” (2004).
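Tested at 5 concentrations; 48 h exposure; 96-well plates; endpoints linearly interpolated, else capped at highest concentration. Abbreviation: GI50, concentration required for 50% inhibition of growth.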 Activity calls are given as the source filed them. No stated cut-off is given here; in the data, active = GI50 up to about 1.1 µM and inactive = higher.

Tests used:
Assay in all cases: NCI-60 cell line screen, 48 h
OVCAR-3 = test system: OVCAR-3
A549 = test system: A549
EKVX = test system: EKVX
SK-MEL-5 = test system: SK-MEL-5
HOP-62 = test system: HOP-62
MOLT-4 = test system: MOLT-4
SF-295 = test system: SF-295
ACHN = test system: ACHN
NCI-H226 = test system: NCI-H226
TK-10 = test system: TK-10
OVCAR-4 = test system: OVCAR-4
HCT-116 = test system: HCT-116
SN12C = test system: SN12C
U-251 = test system: U-251
NCI-H522 = test system: NCI-H522

Measured: GI50

Cc1ccc(Cc2c(=O)[nH]nc3ccccc23)cc1
inactive: OVCAR-3 > 100 µM | A549 > 100 µM | EKVX > 100 µM | SK-MEL-5 > 100 µM | HOP-62 > 100 µM | MOLT-4 > 100 µM | SF-295 89.5 µM | ACHN > 100 µM | NCI-H226 > 100 µM | TK-10 > 100 µM | OVCAR-4 > 100 µM | HCT-116 > 100 µM | SN12C > 100 µM

Cc1cc2c(C)n(Cc3ccc(Cl)cc3Cl)nc2c(C(=O)O)c1C
inactive: OVCAR-3 > 100 µM | A549 > 100 µM | EKVX > 100 µM | U-251 > 100 µM | HOP-62 > 100 µM | MOLT-4 > 100 µM | SF-295 > 100 µM | ACHN > 100 µM | NCI-H226 > 100 µM | TK-10 > 100 µM | HCT-116 > 100 µM | SN12C 63.4 µM

CCCCC(C(=O)C(=O)Nc1ccc(C)cc1C)C(=O)C(C)C (centres undefined)
inactive: OVCAR-3 > 100 µM | A549 > 100 µM | EKVX > 100 µM | U-251 > 100 µM | SK-MEL-5 > 100 µM | HOP-62 > 100 µM | MOLT-4 > 100 µM | SF-295 > 100 µM | ACHN > 100 µM | NCI-H226 > 100 µM | TK-10 > 100 µM | OVCAR-4 > 100 µM | HCT-116 > 100 µM | SN12C > 100 µM

Cc1ccccc1C1SCc2nc3ccccc3n21 (centres undefined)
inactive: OVCAR-3 > 100 µM | A549 > 100 µM | EKVX > 100 µM | U-251 > 100 µM | SK-MEL-5 5.19 µM | SF-295 48.9 µM | ACHN > 100 µM | NCI-H226 60.3 µM | TK-10 > 100 µM | NCI-H522 21.8 µM | HCT-116 4.72 µM | SN12C > 100 µM

CCOC(=O)/C(O)=C(/C(=O)OC)c1ccc(Cl)cc1
inactive: OVCAR-3 > 100 µM | A549 > 100 µM | EKVX > 100 µM | U-251 > 100 µM | SK-MEL-5 > 100 µM | HOP-62 > 100 µM | MOLT-4 > 100 µM | SF-295 > 100 µM | ACHN > 100 µM | TK-10 > 100 µM | OVCAR-4 > 100 µM | SN12C > 100 µM

NN/C(Cc1ccccc1)=N/NC(N)=S
inactive: A549 > 100 µM | EKVX 97.3 µM | U-251 > 100 µM | HOP-62 > 100 µM | MOLT-4 49.9 µM | SF-295 > 100 µM | ACHN 62.5 µM | NCI-H226 > 100 µM | TK-10 > 100 µM | NCI-H522 14.6 µM | OVCAR-4 > 100 µM
